Laboratory results as given in US11000033B2, “Ketone or oxime compound, and herbicide” (NISSAN CHEMICAL CORPORATION, priority 2014, dated 2021).

Assays:
Format in all cases: in vivo
Apera spica-venti = assay: Test Example 5: herbicidal effect by foliage application, plastic box (symbol L); details: 320 g/ha, 3 weeks after application
Outline: (§1)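 Herbicide, formulated as an emulsion and diluted in water, is sprayed onto the aerial parts of 14-day seedlings. These were grown at 25° C. to 30° C. in sterilized diluvial soil; effects are graded after 3 weeks.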

Veronica persica = assay: Test Example 5: herbicidal effect by foliage application, plastic box (symbol R); details: 320 g/ha, 3 weeks after application
Outline: as §1

[1] = system: Echinochloa crus-galli var. crus-galli; assay: Test Example 5: herbicidal effect by foliage application, plastic box (symbol H); details: 320 g/ha, 3 weeks after application
Outline: as §1

corn [2] = assay: Test Example 4: effect on crop by soil treatment (symbol c); details: application herbicide amount 320 g/ha
Outline: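 Plants are raised in a greenhouse (25° C. to 30° C.) from spot-sown seed, which sits under about 1.5 cm of sterilized diluvial soil in a box shared with weed species.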

Amaranthus retroflexus = assay: Test Example 5: herbicidal effect by foliage application, plastic box (symbol N); details: 320 g/ha, 3 weeks after application
Outline: as §1

Abutilon theophrasti = assay: Test Example 4: herbicidal effect by soil treatment (symbol M); details: application herbicide amount 320 g/ha
Outline: (§2)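 Seeds were sown in sterilized diluvial soil, covered with about 1.5 cm of soil, and the soil surface was sprayed with a water-diluted emulsion of the compound at a predetermined rate. Plants grew in a greenhouse at 25° C. to 30° C.; effects were scored visually 3 weeks after application.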

corn [3] = assay: Test Example 5: effect on crop by foliage application, plastic box (symbol c); details: 320 g/ha, 3 weeks after application
Outline: (§3)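 Plants were raised from seed in a greenhouse (25° C. to 30° C.) after sowing in a plastic box of sterilized diluvial soil.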

transplanted rice plant = assay: Test Example 1: effect on crop, application before weed generation in submerged conditions (symbol a); details: application herbicide amount 320 g/ha
Outline: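 Rice at 2.5 leaf stage transplanted into submerged soil (4 cm depth) sown with three weed species; herbicide applied before weed emergence.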

Alopecurus myosuroides [4] = assay: Test Example 5: herbicidal effect by foliage application, plastic box (symbol J); details: 320 g/ha, 3 weeks after application
Outline: as §1

[5] = system: Echinochloa crus-galli var. crus-galli; assay: Test Example 3: herbicidal effect by foliage application, Wagner pot (symbol H); details: application herbicide amount 320 g/ha
Outline: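 The compound, formulated as an emulsion and diluted with water to a predetermined rate, is applied uniformly to leaves of two-week-old seedlings growing in submerged alluvial soil at 25–30 °C. Rice is included. Each plant is assessed 3 weeks later using defined criteria.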

Alopecurus myosuroides [6] = assay: Test Example 4: herbicidal effect by soil treatment (symbol J); details: application herbicide amount 320 g/ha
Outline: as §2

Chenopodium album [7] = assay: Test Example 4: herbicidal effect by soil treatment (symbol O); details: application herbicide amount 320 g/ha
Outline: as §2

Galium spurium = assay: Test Example 4: herbicidal effect by soil treatment (symbol Q); details: application herbicide amount 320 g/ha
Outline: as §2

soybean = assay: Test Example 5: effect on crop by foliage application, plastic box (symbol d); details: 320 g/ha, 3 weeks after application
Outline: as §3

Chenopodium album [8] = assay: Test Example 5: herbicidal effect by foliage application, plastic box (symbol O); details: 320 g/ha, 3 weeks after application
Outline: as §1

Stellaria media = assay: Test Example 4: herbicidal effect by soil treatment (symbol P); details: application herbicide amount 320 g/ha
Outline: as §2

Lolium multiflorum Lam. = assay: Test Example 5: herbicidal effect by foliage application, plastic box (symbol K); details: 320 g/ha, 3 weeks after application
Outline: as §1

Compound | L: Apera spica-venti, herbicidal effect (criteria of Test Example 1) (Apera spica-venti) | R: Veronica persica, herbicidal effect (criteria of Test Example 1) (Veronica persica) | H: Echinochloa crus-galli var. crus-galli, herbicidal effect (criteria of Test Example 1) [1] | Effect on crop grade, c: corn (corn [2]) | N: Amaranthus retroflexus, herbicidal effect (criteria of Test Example 1) (Amaranthus retroflexus) | Herbicidal effect grade, M: Abutilon theophrasti (Abutilon theophrasti) | c: corn, effect on crop (criteria of Test Example 1) (corn [3]) | Effect grade on crop, a: transplanted rice plant (transplanted rice plant) | J: Alopecurus myosuroides, herbicidal effect (criteria of Test Example 1) (Alopecurus myosuroides [4]) | herbicidal effect on H (Echinochloa crus-galli var. crus-galli), grade 0-5 [5] | Herbicidal effect grade, J: Alopecurus myosuroides (Alopecurus myosuroides [6]) | Herbicidal effect grade, O: Chenopodium album (Chenopodium album [7]) | Herbicidal effect grade, Q: Galium spurium (Galium spurium) | d: soybean, effect on crop (criteria of Test Example 1) (soybean) | O: Chenopodium album, herbicidal effect (criteria of Test Example 1) (Chenopodium album [8]) | Herbicidal effect grade, P: Stellaria media (Stellaria media) | K: Lolium multiflorum Lam., herbicidal effect (criteria of Test Example 1) (Lolium multiflorum Lam.)
CCc1cc(Br)cc(C)c1C1=C(O)CC(CC(C)=O)C1=O (centres unmarked) [7-003] | 5 (Herbicidal ratio of 90% or more (almost completely withered)) | 0 (Herbicidal ratio of 5% or lower (almost no effect)) | 5 (Herbicidal ratio of 90% or more (almost completely withered)) | 0 (Herbicidal ratio of 5% or lower (almost no effect)) | 0 (Herbicidal ratio of 5% or lower (almost no effect)) | 0 (Herbicidal ratio of 5% or lower (almost no effect)) | 5 (Herbicidal ratio of 90% or more (almost completely withered)) | 0 (Herbicidal ratio of 5% or lower (almost no effect)) | 5 (Herbicidal ratio of 90% or more (almost completely withered)) | 5 (Herbicidal ratio of 90% or more (almost completely withered)) | 5 (Herbicidal ratio of 90% or more (almost completely withered)) | 0 (Herbicidal ratio of 5% or lower (almost no effect)) | 0 (Herbicidal ratio of 5% or lower (almost no effect)) | 2 (Herbicidal ratio of 20% or higher and lower than 40%) | 0 (Herbicidal ratio of 5% or lower (almost no effect)) | 0 (Herbicidal ratio of 5% or lower (almost no effect)) | 5 (Herbicidal ratio of 90% or more (almost completely withered))
CC(=O)CC1CC(O)=C(c2c(C)cc(-c3ccc(C(F)(F)F)cc3)cc2C)C1=O (centres unmarked) [7-005] | 4 (Herbicidal ratio of 70% or higher and lower than 90%) | 0 (Herbicidal ratio of 5% or lower (almost no effect)) | 5 (Herbicidal ratio of 90% or more (almost completely withered)) | 0 (Herbicidal ratio of 5% or lower (almost no effect)) | 0 (Herbicidal ratio of 5% or lower (almost no effect)) | 0 (Herbicidal ratio of 5% or lower (almost no effect)) | 4 (Herbicidal ratio of 70% or higher and lower than 90%) | 1 (Herbicidal ratio of 5% or higher and lower than 20%) | 2 (Herbicidal ratio of 20% or higher and lower than 40%) | 5 (Herbicidal ratio of 90% or more (almost completely withered)) | 0 (Herbicidal ratio of 5% or lower (almost no effect)) | 0 (Herbicidal ratio of 5% or lower (almost no effect)) | 0 (Herbicidal ratio of 5% or lower (almost no effect)) | 0 (Herbicidal ratio of 5% or lower (almost no effect)) | 3 (Herbicidal ratio of 40% or higher and lower than 70%) | 0 (Herbicidal ratio of 5% or lower (almost no effect)) | 5 (Herbicidal ratio of 90% or more (almost completely withered))
CC(=O)CC1CC(O)=C(c2c(C)cc(-c3ccc(C)cc3)cc2C)C1=O (centres unmarked) [7-007] | 5 (Herbicidal ratio of 90% or more (almost completely withered)) | 0 (Herbicidal ratio of 5% or lower (almost no effect)) | 5 (Herbicidal ratio of 90% or more (almost completely withered)) | 3 (Herbicidal ratio of 40% or higher and lower than 70%) | 0 (Herbicidal ratio of 5% or lower (almost no effect)) | 0 (Herbicidal ratio of 5% or lower (almost no effect)) | 5 (Herbicidal ratio of 90% or more (almost completely withered)) | 5 (Herbicidal ratio of 90% or more (almost completely withered)) | 5 (Herbicidal ratio of 90% or more (almost completely withered)) | 5 (Herbicidal ratio of 90% or more (almost completely withered)) | 5 (Herbicidal ratio of 90% or more (almost completely withered)) | 0 (Herbicidal ratio of 5% or lower (almost no effect)) | 0 (Herbicidal ratio of 5% or lower (almost no effect)) | 0 (Herbicidal ratio of 5% or lower (almost no effect)) | 2 (Herbicidal ratio of 20% or higher and lower than 40%) | 0 (Herbicidal ratio of 5% or lower (almost no effect)) | 5 (Herbicidal ratio of 90% or more (almost completely withered))
CC(=O)CC1CC(O)=C(c2c(C)cc(-c3ccccn3)cc2C)C1=O (centres unmarked) [7-012] | 0 (Herbicidal ratio of 5% or lower (almost no effect)) | 2 (Herbicidal ratio of 20% or higher and lower than 40%) | 5 (Herbicidal ratio of 90% or more (almost completely withered)) | 0 (Herbicidal ratio of 5% or lower (almost no effect)) | 0 (Herbicidal ratio of 5% or lower (almost no effect)) | 0 (Herbicidal ratio of 5% or lower (almost no effect)) | 3 (Herbicidal ratio of 40% or higher and lower than 70%) | 1 (Herbicidal ratio of 5% or higher and lower than 20%) | 3 (Herbicidal ratio of 40% or higher and lower than 70%) | 5 (Herbicidal ratio of 90% or more (almost completely withered)) | 2 (Herbicidal ratio of 20% or higher and lower than 40%) | 0 (Herbicidal ratio of 5% or lower (almost no effect)) | 0 (Herbicidal ratio of 5% or lower (almost no effect)) | 2 (Herbicidal ratio of 20% or higher and lower than 40%) | 3 (Herbicidal ratio of 40% or higher and lower than 70%) | 0 (Herbicidal ratio of 5% or lower (almost no effect)) | 5 (Herbicidal ratio of 90% or more (almost completely withered))
